Key:
[1] = biological target: Vascular endothelial growth factor receptor 3 (Homo sapiens) (UniProt P35916); conditions: Compound concentration 1000.0 nM
[2] = biological target: Beta-1 adrenergic receptor (Homo sapiens) (UniProt P08588); test: beta 1 (h) CEREP ligand profiling; conditions: Compound concentration 10.0 uM
[3] = biological target: Sodium-dependent dopamine transporter (Homo sapiens) (UniProt Q01959); test: DA transporter (h) CEREP ligand profiling; conditions: Compound concentration 10.0 uM
Thromboxane A2 receptor = Thromboxane A2 receptor (Homo sapiens, UniProt P21731); test: Binding assay (TBXA2R)
Thromboxane A2 receptor, sequence (P21731 whole entry): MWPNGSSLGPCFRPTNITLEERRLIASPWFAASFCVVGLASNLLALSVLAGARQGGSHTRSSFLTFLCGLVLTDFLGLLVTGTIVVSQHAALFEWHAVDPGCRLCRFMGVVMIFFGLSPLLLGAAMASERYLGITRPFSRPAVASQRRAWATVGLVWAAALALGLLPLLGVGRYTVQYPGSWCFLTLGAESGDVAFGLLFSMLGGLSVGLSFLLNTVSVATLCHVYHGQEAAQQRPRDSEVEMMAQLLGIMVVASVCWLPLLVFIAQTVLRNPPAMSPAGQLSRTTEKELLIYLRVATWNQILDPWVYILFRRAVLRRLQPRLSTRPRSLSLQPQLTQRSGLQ

[4] = biological target: Transient receptor potential cation channel subfamily M member 6 (Homo sapiens) (UniProt Q9BX84); conditions: Compound concentration 1000.0 nM
[5] = biological target: Tyrosine-protein kinase Lyn (Homo sapiens) (UniProt P07948); test: Lyn kinase (h) CEREP ligand profiling; conditions: Compound concentration 10.0 uM
[6] = biological target: Cyclin-dependent kinase-like 2 (Homo sapiens) (UniProt Q92772); conditions: Compound concentration 1000.0 nM
[7] = biological target: Cyclin-dependent kinase-like 5 (Homo sapiens) (UniProt O76039); conditions: Compound concentration 1000.0 nM
[8] = biological target: D(2) dopamine receptor (Homo sapiens) (UniProt P14416); test: D2S (h) CEREP ligand profiling; conditions: Compound concentration 10.0 uM
[9] = biological target: Dual specificity testis-specific protein kinase 1 (Homo sapiens) (UniProt Q15569); conditions: Compound concentration 1000.0 nM
CYP3A4 = CYP3A4 (Homo sapiens, UniProt P08684); test: CYP3A4 inhibition CEREP ligand profiling; conditions: compound concentration 10 uM
CYP3A4, sequence (P08684 whole entry): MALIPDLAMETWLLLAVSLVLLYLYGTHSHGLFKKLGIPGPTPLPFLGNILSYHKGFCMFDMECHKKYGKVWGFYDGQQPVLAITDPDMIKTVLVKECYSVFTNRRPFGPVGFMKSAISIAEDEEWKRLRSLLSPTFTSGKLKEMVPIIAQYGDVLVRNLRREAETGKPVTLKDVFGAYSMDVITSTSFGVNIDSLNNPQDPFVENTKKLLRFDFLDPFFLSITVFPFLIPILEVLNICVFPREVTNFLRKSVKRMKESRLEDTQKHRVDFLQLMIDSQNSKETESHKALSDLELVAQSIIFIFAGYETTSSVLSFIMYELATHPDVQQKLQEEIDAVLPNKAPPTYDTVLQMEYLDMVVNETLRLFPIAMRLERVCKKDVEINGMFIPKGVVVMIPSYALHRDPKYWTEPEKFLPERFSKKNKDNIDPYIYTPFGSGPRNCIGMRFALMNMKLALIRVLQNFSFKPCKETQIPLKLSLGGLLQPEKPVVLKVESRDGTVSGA

[10] = biological target: STE20/SPS1-related proline-alanine-rich protein kinase (Homo sapiens) (UniProt Q9UEW8); conditions: Compound concentration 1000.0 nM
[11] = biological target: T1, 5-hydroxytryptamine receptor 2C (Homo sapiens) (UniProt P28335); test: 5-HT2C (h) (agonist site) CEREP ligand profiling; conditions: Compound concentration 10.0 uM
T1 sequence (whole entry): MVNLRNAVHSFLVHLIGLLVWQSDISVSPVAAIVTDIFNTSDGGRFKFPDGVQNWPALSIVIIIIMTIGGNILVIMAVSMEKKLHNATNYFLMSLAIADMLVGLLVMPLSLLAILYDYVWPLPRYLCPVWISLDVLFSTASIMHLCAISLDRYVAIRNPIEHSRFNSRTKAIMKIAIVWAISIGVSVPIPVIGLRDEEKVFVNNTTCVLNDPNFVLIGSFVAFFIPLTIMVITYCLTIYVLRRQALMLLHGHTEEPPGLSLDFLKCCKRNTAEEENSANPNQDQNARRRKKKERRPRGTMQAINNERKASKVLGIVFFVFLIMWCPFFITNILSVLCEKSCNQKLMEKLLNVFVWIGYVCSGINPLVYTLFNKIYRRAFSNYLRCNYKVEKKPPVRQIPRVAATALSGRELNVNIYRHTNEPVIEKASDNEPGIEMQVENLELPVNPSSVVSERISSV

[12] = biological target: Cyclin-dependent kinase 18 (Homo sapiens) (UniProt Q07002); conditions: Compound concentration 1000.0 nM
[13] = biological target: Serine/threonine-protein kinase PknB (Mycobacterium tuberculosis) (UniProt P9WI81); conditions: Compound concentration 1000.0 nM
[14] = biological target: Homeodomain-interacting protein kinase 2 (Homo sapiens) (UniProt Q9H2X6); conditions: Compound concentration 1000.0 nM
[15] = biological target: Adenosine receptor A2a (Homo sapiens) (UniProt P29274); test: A2A (h) CEREP ligand profiling; conditions: Compound concentration 10.0 uM
[16] = tested on: Tyrosine-protein kinase ABL1 (Homo sapiens), P00519 [M351T]; conditions: Compound concentration 1000.0 nM
[17] = biological target: Serine/threonine-protein kinase 33 (Homo sapiens) (UniProt Q9BYT3); conditions: Compound concentration 1000.0 nM
[18] = biological target: Cyclin-dependent kinase 4 (Homo sapiens) (UniProt P11802); conditions: Compound concentration 1000.0 nM
[19] = biological target: Voltage-gated L-type calcium channel (DHP site) (Homo sapiens, UniProt O60840+Q01668+Q13698+Q13936); test: Ca2+ channel (L, DHP site) CEREP ligand profiling; assay type: protein assay; conditions: compound concentration 10 uM
[20] = biological target: Cyclin-dependent kinase 3 (Homo sapiens) (UniProt Q00526); conditions: Compound concentration 1000.0 nM
Cyclin-dependent kinase 3 (Homo sapiens), sequence (Q00526 whole entry, looked up): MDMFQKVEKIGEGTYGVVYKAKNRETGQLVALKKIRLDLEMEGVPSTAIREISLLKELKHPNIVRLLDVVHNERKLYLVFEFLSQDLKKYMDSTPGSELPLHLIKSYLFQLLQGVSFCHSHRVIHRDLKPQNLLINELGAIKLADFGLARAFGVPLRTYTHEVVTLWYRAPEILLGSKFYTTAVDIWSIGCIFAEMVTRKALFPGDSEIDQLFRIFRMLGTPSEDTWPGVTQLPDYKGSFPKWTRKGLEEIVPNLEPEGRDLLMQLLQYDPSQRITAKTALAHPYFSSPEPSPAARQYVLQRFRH

[21] = biological target: Ribosomal protein S6 kinase alpha-3 (Homo sapiens) (UniProt P51812); conditions: Compound concentration 1000.0 nM
CYP2C9 = CYP2C9 (Homo sapiens, UniProt P11712); test: CYP2C9 inhibition CEREP ligand profiling; conditions: compound concentration 10 uM
[22] = biological target: cGMP-dependent protein kinase 2 (Homo sapiens) (UniProt Q13237); conditions: Compound concentration 1000.0 nM
[23] = biological target: Mitogen-activated protein kinase 6 (Homo sapiens) (UniProt Q16659); conditions: Compound concentration 1000.0 nM
[24] = biological target: Mitogen-activated protein kinase kinase kinase 5 (Homo sapiens) (UniProt Q99683); conditions: Compound concentration 1000.0 nM
Mitogen-activated protein kinase kinase kinase 5 (Homo sapiens), sequence (Q99683 whole entry): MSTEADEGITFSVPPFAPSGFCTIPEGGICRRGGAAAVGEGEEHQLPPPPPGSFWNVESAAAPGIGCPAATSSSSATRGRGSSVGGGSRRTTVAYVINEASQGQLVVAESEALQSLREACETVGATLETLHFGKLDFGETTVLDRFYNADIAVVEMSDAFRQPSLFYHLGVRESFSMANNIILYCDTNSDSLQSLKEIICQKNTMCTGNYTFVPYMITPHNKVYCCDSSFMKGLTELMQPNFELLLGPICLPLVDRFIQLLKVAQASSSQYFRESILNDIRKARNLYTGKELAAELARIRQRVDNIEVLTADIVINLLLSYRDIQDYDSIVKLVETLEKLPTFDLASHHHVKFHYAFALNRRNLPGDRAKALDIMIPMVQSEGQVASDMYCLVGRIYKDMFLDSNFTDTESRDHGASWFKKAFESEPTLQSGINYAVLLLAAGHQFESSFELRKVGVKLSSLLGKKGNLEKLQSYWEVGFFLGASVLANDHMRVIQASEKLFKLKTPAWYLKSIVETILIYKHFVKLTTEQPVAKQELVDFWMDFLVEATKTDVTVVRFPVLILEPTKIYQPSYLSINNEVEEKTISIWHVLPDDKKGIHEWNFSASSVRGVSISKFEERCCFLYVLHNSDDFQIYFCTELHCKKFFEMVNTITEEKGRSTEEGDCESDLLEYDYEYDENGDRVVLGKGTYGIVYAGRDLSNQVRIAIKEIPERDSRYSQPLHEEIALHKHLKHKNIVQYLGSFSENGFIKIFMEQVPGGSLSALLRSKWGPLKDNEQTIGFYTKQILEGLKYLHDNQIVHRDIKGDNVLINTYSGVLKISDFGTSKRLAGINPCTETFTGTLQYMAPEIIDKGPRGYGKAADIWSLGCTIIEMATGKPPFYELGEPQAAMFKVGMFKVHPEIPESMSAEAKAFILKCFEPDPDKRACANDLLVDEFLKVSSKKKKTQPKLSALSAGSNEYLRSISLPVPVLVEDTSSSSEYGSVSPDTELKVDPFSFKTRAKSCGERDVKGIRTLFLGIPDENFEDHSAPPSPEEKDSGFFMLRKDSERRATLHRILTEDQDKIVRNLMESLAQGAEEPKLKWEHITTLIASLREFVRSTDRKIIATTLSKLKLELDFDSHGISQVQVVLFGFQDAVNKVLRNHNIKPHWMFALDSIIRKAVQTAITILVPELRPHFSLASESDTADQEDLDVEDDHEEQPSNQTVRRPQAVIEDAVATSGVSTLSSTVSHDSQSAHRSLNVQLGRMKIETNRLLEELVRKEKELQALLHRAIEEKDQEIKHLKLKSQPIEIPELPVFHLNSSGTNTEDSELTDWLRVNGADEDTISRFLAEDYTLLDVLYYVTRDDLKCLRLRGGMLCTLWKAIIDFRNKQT

[25] = biological target: Voltage-dependent N-type calcium channel subunit alpha-1B (Homo sapiens) (UniProt Q00975); test: Ca2+ channel (N) CEREP ligand profiling; conditions: Compound concentration 10.0 uM
Voltage-dependent N-type calcium channel subunit alpha-1B (Homo sapiens), sequence (Q00975 whole entry, looked up): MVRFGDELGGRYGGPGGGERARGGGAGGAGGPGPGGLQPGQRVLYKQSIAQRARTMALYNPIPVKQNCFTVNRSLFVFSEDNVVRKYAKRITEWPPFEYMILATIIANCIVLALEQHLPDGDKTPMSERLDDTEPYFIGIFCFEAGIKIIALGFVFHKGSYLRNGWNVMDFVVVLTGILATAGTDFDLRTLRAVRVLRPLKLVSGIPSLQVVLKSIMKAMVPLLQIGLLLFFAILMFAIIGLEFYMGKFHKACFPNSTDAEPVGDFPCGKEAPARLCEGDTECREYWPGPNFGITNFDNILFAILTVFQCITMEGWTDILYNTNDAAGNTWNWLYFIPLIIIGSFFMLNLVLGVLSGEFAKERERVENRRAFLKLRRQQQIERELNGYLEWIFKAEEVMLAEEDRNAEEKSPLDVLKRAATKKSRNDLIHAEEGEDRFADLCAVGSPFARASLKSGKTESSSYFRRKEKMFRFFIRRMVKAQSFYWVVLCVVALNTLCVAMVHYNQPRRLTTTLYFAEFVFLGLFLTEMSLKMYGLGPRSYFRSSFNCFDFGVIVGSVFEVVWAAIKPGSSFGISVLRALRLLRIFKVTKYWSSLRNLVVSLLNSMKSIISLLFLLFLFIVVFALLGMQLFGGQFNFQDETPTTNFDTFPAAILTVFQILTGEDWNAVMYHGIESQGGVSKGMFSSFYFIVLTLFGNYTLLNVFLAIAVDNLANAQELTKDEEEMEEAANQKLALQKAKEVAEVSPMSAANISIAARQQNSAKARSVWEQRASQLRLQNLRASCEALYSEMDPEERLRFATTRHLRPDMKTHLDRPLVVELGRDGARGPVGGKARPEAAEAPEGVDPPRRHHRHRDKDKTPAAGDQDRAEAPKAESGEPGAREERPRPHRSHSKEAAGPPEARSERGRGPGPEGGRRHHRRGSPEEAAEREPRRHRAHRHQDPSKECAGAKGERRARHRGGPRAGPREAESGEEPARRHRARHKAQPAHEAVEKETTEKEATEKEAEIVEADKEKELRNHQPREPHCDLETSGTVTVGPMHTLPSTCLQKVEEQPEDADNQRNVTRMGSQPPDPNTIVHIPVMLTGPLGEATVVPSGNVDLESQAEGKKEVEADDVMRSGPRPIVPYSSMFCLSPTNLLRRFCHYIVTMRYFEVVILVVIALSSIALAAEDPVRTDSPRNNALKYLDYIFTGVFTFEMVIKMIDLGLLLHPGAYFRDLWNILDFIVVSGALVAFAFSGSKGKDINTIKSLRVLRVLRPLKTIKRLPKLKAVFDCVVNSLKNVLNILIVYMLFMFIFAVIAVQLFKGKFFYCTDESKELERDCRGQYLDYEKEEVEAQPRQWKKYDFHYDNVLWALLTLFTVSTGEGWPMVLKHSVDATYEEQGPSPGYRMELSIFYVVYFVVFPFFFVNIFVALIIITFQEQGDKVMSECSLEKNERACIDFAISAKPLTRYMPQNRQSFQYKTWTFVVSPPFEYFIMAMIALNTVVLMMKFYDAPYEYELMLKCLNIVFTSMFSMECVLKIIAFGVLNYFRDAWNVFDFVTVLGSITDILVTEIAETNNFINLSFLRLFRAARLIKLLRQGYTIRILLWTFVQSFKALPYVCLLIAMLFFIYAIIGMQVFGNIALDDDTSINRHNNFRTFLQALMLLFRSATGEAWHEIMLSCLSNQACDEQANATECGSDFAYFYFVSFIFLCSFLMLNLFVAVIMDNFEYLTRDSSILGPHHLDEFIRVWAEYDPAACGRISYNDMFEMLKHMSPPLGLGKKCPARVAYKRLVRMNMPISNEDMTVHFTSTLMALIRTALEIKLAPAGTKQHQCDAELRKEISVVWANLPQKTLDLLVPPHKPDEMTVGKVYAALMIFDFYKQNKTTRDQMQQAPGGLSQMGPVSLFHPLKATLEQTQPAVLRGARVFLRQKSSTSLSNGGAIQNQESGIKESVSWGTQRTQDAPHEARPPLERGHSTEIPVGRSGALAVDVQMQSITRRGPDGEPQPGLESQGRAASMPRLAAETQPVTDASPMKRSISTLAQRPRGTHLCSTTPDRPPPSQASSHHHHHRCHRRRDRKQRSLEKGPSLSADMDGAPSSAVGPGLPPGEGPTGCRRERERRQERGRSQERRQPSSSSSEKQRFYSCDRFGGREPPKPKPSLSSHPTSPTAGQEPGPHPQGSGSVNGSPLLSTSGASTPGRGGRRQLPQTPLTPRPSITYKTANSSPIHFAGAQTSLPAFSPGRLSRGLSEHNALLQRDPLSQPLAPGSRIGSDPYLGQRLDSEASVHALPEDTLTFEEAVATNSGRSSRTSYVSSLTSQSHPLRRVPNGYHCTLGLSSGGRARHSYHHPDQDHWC

[26] = biological target: Tyrosine-protein kinase Lck (Homo sapiens) (UniProt P06239); conditions: Compound concentration 1000.0 nM
[27] = biological target: MAO-A (Amine oxidase [flavin-containing] A) (Homo sapiens, UniProt P21397); test: MAO-A CEREP ligand profiling; conditions: compound concentration 10 uM
[28] = biological target: T2, Alpha-2A adrenergic receptor (Homo sapiens) (UniProt P08913); test: alpha 2A (h) CEREP ligand profiling; conditions: Compound concentration 10.0 uM
T2 sequence (whole entry): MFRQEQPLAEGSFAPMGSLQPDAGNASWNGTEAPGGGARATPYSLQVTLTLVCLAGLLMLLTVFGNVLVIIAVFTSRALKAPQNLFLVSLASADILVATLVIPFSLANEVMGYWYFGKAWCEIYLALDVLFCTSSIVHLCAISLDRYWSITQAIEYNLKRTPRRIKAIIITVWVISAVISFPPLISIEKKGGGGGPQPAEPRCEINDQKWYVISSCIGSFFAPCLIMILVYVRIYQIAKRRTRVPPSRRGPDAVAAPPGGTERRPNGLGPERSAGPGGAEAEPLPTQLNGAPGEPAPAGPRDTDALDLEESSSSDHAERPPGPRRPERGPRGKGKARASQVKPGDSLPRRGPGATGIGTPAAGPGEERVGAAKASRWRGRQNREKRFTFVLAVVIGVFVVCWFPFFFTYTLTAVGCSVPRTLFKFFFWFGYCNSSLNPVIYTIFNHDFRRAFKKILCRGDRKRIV

[29] = biological target: Serine/threonine-protein kinase MARK2 (Homo sapiens) (UniProt Q7KZI7); conditions: Compound concentration 1000.0 nM
[30] = biological target: SRSF protein kinase 2 (Homo sapiens) (UniProt P78362); conditions: Compound concentration 1000.0 nM

COc1ccc2cc(OCC3(C(=O)O)CN(C(=O)c4ccc(F)cc4)C3)ccc2c1 [PF-04418948]
residual activity [1]: 75%
inhibition [2]: 9%
inhibition [3]: 11%
Ki (Thromboxane A2 receptor): > 10 µM (not active)
residual activity [4]: 98%
inhibition [5]: 2%
residual activity [6]: 89%
residual activity [7]: 97%
inhibition [8]: -2%
residual activity [9]: 98%
inhibition at 10 µM (CYP3A4): 17% (not active)
residual activity [10]: 55%
inhibition [11]: -6%
residual activity [12]: 98%
residual activity [13]: 88%
residual activity [14]: 78%
inhibition [15]: -9%
residual activity [16]: 87%
residual activity [17]: 98%
residual activity [18]: 90%
inhibition at 10 µM [19]: -3% (not active)
residual activity [20]: 83%
residual activity [21]: 85%
inhibition at 10 µM (CYP2C9): 41% (not active)
residual activity [22]: 85%
residual activity [23]: 88%
residual activity [24]: 98%
inhibition [25]: -7%
residual activity [26]: 80%
inhibition at 10 µM [27]: 3% (not active)
inhibition [28]: 26%
residual activity [29]: 91%
residual activity [30]: 84%

Source: ChEMBL document CHEMBL4507298 (2021)
